Consider six compounds from ChEMBL document CHEMBL3120132, “Antiviral compounds for the treatment of HCV” (ACS Med Chem Lett, 2014).

In the assay the test system is Hepatitis C virus. The assay is described as follows: Antiviral activity against Hepatitis C virus Con1 genotype 1b expressing NS3 infected in human 2209-23 cells assessed as inhibition of viral replication after 72 hrs by luciferase reporter gene assay. In kind it is functional, organism-based, Hepacivirus hominis. The settings on record: isolate Con1, 2209-23, 72 h. In general terms: Reporter assays use an easily measured gene product as a stand-in for the process of interest.
A word on the IC50: it is the midpoint of a concentration-inhibition curve. For the compound `CCOC(=O)[C@@H]1C[C@H](NC(=O)c2ccc3ccccc3c2O)CN1CC(C)C`, the IC50 came to 0.055 nM. Regarding `CCOC(=O)[C@@H]1C[C@H](NC(=O)c2ccc3ccccc3c2O)CN1CC1CCC1`, the IC50 came out at 0.052 nM.

Turning to `CCOC(=O)[C@@H]1C[C@H](NC(=O)c2ccc3ccccc3c2O)CN1CC1CCCC1`, the IC50 amounted to 0.029 nM. On to `COC(=O)[C@@H]1C[C@H](NC(=O)c2ccc3ccccc3c2O)CN1Cc1ccccc1`, for which the IC50 came to 0.079 nM. As for `COC(=O)[C@@H]1C[C@H](NC(=O)c2ccc3ccccc3c2O)CN1CCC(C)(C)C`, the IC50 was 0.051 nM. Under `COC(=O)[C@@H]1C[C@H](NC(=O)c2ccc3ccccc3c2O)CN1CC1CCCCC1` stands 0.047 nM.
